Structures are written as SMILES. Activity calls are given as the source filed them.

This is an account of results in ChEMBL document CHEMBL1201862, “PubChem BioAssay data set” (2004).

Test [1] deals with Paired box protein Pax-8 (Homo sapiens, UniProt Q06710). Put plainly: inhibitors of PAX8-driven TPO luciferase reporter, dose response, RMG-I cells, cherry-pick (AID 687027).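 Note: luciferase reporter driven by Pax8 target thyroperoxidase promoter measured by SteadyGlo luminescence.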 In kind it is functional, cell-based. On the technique in general: In a reporter assay the amount or activity of a reporter protein is the signal.
Paired box protein Pax-8, sequence (Q06710 whole entry): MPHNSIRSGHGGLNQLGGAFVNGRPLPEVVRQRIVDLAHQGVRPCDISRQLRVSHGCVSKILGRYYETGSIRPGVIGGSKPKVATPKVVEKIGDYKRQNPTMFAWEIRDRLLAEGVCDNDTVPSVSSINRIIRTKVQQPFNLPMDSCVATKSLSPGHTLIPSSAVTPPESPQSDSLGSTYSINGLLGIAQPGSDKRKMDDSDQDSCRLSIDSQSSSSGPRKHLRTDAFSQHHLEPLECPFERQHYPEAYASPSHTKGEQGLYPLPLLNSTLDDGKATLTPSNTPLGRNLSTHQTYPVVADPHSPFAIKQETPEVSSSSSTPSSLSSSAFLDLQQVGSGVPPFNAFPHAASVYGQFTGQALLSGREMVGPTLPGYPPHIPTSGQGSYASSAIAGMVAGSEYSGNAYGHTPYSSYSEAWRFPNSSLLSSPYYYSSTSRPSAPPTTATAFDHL
The nature of test [2]: A2780 ovarian cancer cell cytotoxicity, dose response, cytotoxicity control, plate reader, dry powder samples (AID 743046). In kind it is functional, cell-based.
The nature of test [3]: NIH:OVCAR-3 ovarian cancer cell cytotoxicity, dose response, PAX8 inhibitor project, plate reader, dry powder samples (AID 743044). In kind it is functional, cell-based.
Test [4] can be described thus: IGROV1 ovarian cancer cell cytotoxicity, dose response, PAX8 inhibitor project, plate reader, dry powder samples (AID 743043). In kind it is functional, cell-based. The note with it: IGROV-1.
Test [5] in a line: cytotoxicity in OVCAR8 ovarian cancer cells, dose response, PAX8 project, cell-based, plate reader, dry powder samples (AID 743197). In kind it is functional. The note with it: OVCAR-8.
For test [6], the target named is T1, Galanin receptor type 3 (Homo sapiens, UniProt O60755).
T1 sequence (O60755 whole entry): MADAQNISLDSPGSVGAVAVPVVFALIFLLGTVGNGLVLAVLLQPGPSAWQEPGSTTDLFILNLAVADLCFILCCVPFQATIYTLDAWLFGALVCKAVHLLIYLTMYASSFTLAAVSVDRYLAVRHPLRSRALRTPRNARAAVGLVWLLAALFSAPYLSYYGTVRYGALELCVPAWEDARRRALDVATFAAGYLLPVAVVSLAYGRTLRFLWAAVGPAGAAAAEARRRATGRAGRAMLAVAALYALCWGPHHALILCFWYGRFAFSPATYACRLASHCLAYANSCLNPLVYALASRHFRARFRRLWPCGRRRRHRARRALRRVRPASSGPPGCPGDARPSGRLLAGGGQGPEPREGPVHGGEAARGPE
Kind of test: Fluorescence-based cell-based primary high throughput dose response assay to identify antagonists of the Galanin Receptor 3 (GalR3). In kind it is functional.

Test [7] is described as follows: cells. In kind it is functional, cell-based. The note with it: HEK-CNG.
Test [8] concerns the target T2, COUP transcription factor 2 (Homo sapiens, UniProt P24468).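 Note: HEK293 cells transiently cotransfected with COUP-TFII expression vector and reporter; luciferase reporter luminescence driven by COUP-TFII from the pX2-168 reporter plasmid.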
T2 sequence (P24468 whole entry): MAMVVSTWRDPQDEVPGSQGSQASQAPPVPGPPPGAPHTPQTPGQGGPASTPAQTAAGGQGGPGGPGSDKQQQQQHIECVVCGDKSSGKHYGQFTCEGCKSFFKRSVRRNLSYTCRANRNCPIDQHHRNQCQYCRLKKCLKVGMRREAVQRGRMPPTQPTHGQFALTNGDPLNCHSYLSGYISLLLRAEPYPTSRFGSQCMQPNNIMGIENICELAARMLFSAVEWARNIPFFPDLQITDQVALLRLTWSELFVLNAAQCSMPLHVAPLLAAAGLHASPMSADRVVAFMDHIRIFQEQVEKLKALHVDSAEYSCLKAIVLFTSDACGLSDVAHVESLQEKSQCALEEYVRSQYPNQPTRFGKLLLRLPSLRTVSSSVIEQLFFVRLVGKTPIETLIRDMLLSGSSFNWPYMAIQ
Put plainly: Luminescence-based cell-based high throughput dose response assay to identify inhibitors of COUP-TFII (NR2F2). In kind it is functional.

Test [9] deals with Cytochrome P450 2C19 (Homo sapiens, UniProt P33261). Put plainly: Cytochrome panel assay with activity outcomes. Panel member name: p450-cyp2c19 Compounds with AC50 equal or less than 10 uM are considered active. In kind it is functional. To be noted: read-out: AC50.
Cytochrome P450 2C19, sequence (P33261 whole entry): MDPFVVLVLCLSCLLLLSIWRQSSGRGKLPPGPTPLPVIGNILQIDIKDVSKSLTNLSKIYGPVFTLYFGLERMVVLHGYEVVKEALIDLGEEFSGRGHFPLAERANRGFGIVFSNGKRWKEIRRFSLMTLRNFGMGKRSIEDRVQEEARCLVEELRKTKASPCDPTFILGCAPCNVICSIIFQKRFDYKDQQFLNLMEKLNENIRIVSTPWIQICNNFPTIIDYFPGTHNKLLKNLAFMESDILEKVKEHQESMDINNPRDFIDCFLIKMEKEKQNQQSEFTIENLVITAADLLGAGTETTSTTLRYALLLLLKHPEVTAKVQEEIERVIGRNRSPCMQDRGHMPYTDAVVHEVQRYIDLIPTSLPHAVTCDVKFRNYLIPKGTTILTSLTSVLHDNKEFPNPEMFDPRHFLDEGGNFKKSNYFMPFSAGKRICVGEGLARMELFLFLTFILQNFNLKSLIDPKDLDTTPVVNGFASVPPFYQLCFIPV
The target of test [10] is Beta-galactosidase (Escherichia coli, UniProt Q8VNN2). Put plainly: Dose response counterscreen for EBI2 assay utilizing the enzyme, b-galactosidase. In kind it is functional.
Beta-galactosidase, sequence (Q8VNN2 whole entry): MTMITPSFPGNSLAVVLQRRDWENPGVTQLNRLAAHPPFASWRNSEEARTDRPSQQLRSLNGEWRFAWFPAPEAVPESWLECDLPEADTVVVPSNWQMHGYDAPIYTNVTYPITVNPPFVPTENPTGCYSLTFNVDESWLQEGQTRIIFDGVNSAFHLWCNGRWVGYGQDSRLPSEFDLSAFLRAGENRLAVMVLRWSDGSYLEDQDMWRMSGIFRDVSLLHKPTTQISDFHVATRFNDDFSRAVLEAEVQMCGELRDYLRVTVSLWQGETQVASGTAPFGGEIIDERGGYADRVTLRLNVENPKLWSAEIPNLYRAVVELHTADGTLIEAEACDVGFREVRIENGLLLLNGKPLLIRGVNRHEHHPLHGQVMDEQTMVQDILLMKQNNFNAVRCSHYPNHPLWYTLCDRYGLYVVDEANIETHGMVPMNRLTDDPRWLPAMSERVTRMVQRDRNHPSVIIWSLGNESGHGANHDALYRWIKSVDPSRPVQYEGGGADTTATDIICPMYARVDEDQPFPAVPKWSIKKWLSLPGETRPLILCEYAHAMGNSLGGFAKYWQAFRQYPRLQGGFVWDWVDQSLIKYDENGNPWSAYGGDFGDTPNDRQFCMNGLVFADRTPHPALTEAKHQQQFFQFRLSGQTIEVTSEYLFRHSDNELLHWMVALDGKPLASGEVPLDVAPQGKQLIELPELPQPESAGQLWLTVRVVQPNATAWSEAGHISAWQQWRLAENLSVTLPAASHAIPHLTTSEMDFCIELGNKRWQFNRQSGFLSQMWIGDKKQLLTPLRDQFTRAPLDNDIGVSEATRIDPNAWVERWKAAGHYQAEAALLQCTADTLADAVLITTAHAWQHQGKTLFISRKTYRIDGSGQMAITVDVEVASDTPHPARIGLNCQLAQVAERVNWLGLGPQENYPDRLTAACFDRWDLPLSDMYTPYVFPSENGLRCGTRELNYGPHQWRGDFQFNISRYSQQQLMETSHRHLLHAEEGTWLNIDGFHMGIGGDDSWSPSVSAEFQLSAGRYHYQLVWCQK
Test [11] addresses Cytochrome P450 2C9 (Homo sapiens, UniProt P11712).
The target of test [12] is SWI/SNF-related matrix-associated actin-dependent regulator of chromatin subfamily A member 2 (Homo sapiens, UniProt P51531). Put plainly: Luminescence-based cell-based high throughput dose response assay to identify activators of the function of SWI/SNF related, matrix associated, actin dependent regulator of chromatin, subfamily a, member 2 (SMARCA2, BRM). In kind it is functional.
SWI/SNF-related matrix-associated actin-dependent regulator of chromatin subfamily A member 2, sequence (P51531 whole entry): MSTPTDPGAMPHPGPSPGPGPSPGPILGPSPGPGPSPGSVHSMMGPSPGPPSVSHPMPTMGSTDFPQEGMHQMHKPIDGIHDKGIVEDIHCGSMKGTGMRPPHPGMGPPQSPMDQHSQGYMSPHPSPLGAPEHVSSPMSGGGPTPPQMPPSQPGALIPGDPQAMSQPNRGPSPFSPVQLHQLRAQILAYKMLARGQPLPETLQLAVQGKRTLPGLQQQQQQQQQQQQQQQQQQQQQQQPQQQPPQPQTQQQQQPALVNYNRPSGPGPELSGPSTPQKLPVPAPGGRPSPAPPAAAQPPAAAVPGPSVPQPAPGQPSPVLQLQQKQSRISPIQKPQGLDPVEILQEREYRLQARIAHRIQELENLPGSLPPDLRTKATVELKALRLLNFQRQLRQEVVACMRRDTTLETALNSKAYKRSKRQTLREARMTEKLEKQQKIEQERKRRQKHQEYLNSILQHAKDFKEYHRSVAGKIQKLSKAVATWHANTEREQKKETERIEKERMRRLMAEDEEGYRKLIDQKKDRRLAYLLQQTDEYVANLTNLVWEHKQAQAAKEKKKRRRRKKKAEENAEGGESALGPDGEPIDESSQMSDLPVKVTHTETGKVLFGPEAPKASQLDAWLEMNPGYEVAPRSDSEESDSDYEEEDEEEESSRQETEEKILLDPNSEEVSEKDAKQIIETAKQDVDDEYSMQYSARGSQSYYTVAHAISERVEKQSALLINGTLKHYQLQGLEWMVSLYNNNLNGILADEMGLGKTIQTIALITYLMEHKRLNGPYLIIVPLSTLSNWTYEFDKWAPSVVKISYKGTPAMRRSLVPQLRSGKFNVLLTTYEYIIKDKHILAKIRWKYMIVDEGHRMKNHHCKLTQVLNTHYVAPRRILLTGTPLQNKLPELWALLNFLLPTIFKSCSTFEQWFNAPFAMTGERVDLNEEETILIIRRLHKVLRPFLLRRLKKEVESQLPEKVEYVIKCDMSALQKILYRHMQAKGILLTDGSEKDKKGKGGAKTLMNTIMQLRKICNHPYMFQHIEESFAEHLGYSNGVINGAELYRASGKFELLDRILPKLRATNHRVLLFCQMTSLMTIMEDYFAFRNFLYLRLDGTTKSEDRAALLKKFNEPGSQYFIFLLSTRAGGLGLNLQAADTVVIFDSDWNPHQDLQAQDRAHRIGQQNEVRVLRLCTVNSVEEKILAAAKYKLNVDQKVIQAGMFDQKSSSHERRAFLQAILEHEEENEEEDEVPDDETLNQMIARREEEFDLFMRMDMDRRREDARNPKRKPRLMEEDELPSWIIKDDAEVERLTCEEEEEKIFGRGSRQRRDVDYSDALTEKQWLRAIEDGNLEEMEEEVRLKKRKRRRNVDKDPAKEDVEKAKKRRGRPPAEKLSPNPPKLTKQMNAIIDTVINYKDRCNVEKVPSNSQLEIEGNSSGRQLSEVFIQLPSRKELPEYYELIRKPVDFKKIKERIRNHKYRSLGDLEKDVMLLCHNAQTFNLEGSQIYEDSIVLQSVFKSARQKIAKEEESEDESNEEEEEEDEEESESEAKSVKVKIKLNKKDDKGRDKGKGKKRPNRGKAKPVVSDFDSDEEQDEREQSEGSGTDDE

The nature of test [13]: Counterscreen for activators of the function of SWI/SNF related, matrix associated, actin dependent regulator of chromatin, subfamily a, member 2 (SMARCA2, BRM): Luminescence-based cell-based high throughput dose response assay to identify non-selective compounds using the VP16 reporter assay. In kind it is functional.
Test [14] is described as follows: cells. In kind it is functional, cell-based.
In test [15] the target is T3, Trace amine-associated receptor 1 (Homo sapiens, UniProt Q96RJ0).
T3 sequence (Q96RJ0 whole entry): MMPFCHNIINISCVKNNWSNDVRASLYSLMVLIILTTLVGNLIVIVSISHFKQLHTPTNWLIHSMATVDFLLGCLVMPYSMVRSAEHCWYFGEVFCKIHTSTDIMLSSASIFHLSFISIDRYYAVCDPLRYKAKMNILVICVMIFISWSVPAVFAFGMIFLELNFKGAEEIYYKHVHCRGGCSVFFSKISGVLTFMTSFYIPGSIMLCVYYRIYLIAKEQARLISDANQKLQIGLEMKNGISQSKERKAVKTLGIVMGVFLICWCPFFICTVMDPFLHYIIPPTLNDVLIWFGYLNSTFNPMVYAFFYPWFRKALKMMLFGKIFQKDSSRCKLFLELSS
Put plainly: Fluorescence-based cell-based high throughput dose response assay to identify agonists of the human trace amine associated receptor 1 (TAAR1). In kind it is functional.

The target in test [16] is T3, Trace amine-associated receptor 1. Kind of test: Counterscreen for agonists of the human trace amine associated receptor 1 (hTAAR1): Fluorescence-based cell-based high throughput dose response assay to identify hTAAR1 agonist that also desensitize TAAR1 receptor response. In kind it is functional.
Test [17] in a line: cells. In kind it is functional, cell-based. The source holds these as a separate data set.
The nature of test [18]: Shn3 3'UTR reporter inhibitors, dose response, cell-based, Clone20 osteoblasts, firefly luciferase, cherry-picked (AID 624132).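 Note: firefly luciferase luminescence from reporter carrying the Shn3 3'UTR in osteoblasts.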 In kind it is functional.
A short description of test [19]: HepG2 cell cytotoxicity, dose response, cytotoxicity control for Shn3 inhibitor project, CellTiter-Glo, cherry-picked (AID 624134). In kind it is functional, cell-based. (In ATP-based viability assays light output follows the ATP content of the culture.)
The nature of test [20]: control 3'UTR Renilla luciferase suppression, dose response, counter-screen for Shn3 inhibitor project, cell-based, Clone20-Shn3RL, cherry-picked (AID 624133). In kind it is functional. Background: A counterscreen serves to expose hits that act by an unwanted route or on another target.
Test [21] addresses Glucose-6-phosphate 1-dehydrogenase (Homo sapiens, UniProt P11413). Kind of test: human G6PD enzyme inhibitors, dose response, selectivity assay for P. falciparum G6PD inhibitor project, biochemical, fluorescence (AID 504792). In kind it is functional.

Cytochrome P450 2C9, sequence (P11712 whole entry): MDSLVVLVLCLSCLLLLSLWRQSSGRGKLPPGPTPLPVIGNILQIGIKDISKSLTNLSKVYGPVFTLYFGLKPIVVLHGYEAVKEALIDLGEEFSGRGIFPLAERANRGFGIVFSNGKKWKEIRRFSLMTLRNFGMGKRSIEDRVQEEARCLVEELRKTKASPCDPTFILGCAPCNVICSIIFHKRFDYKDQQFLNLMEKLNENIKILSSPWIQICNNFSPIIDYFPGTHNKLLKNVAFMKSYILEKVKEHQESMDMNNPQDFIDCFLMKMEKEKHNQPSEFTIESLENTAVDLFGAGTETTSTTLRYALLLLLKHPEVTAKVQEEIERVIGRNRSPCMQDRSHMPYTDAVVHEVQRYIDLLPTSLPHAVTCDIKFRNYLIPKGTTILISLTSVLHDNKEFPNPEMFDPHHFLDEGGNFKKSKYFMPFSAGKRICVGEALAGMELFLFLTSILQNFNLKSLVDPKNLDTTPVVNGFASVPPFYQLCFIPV
Glucose-6-phosphate 1-dehydrogenase, sequence (P11413 whole entry): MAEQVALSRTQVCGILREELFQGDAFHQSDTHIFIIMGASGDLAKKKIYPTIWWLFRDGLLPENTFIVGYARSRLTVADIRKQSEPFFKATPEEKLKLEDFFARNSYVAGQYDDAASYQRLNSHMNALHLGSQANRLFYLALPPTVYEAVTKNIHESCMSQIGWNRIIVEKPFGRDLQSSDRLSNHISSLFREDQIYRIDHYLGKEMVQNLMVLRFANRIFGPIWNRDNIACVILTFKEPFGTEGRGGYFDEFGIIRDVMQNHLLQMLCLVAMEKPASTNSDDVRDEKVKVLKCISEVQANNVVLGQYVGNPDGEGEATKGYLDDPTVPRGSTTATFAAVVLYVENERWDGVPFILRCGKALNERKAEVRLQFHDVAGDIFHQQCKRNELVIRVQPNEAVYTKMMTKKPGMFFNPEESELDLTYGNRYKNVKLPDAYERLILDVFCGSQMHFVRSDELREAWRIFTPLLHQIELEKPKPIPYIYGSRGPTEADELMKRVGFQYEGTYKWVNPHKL

With `COc1ccc(-c2ccc3c(c2)[C@@H]2[C@@H](CCN2C(=O)C2CCCCC2)[C@H](CO)N3C)cc1`, the AC50 (commonly the concentration at which the activity in the assay is half-maximal) is 6.75 µM (active) in test [1]; 10.7 µM (active) in [2]; 25.2 µM (active) in test [3]; 47.5 µM (active) in [4]; 32.7 µM (active) in [5].

Regarding `C[C@@H]1CN([C@H](C)CO)C(=O)c2cc(NC(=O)NC3CCCCC3)ccc2O[C@@H](C)CCCCO[C@H]1CN(C)Cc1ccc(C(F)(F)F)cc1`, the AC50 in [1] was 6.85 µM (active); in test [2] it was 25.7 µM (active); in test [3] it was 12.7 µM (active); in [4], 24.8 µM (active); in [5] it was 54.1 µM (active).

In the case of `Fc1ccc(CN2CCN(c3ncc(Cc4ccccc4)cn3)CC2)c(Cl)c1`, the 50% inhibitory concentration (IC50) (in general, the concentration that gives 50% inhibition) in [6] was 1.06 µM (active); in [8], 10.1 µM (inactive). Also, in [7], the EC50 (as a rule, the concentration giving half of the maximal effect) was > 29.9 µM (inactive).

Take `O=C(COc1ccc2ccccc2c1)N1CCN(C(=O)c2cccnc2)CC1`: the AC50 in [9] was 15.8 µM (inconclusive); in test [11], 31.6 µM (inconclusive). Besides, the IC50 in test [10] was > 80 µM (inactive).

Regarding `C=C1C(=O)[C@]23C[C@H]1CCC2[C@]1(C)C(=O)CC[C@@](C)(C(=O)O)C1C[C@@H]3O` (some centres not stated), the EC50 in test [12] and in test [13] was > 91.2 µM (inactive) in each case.

Take `N#Cc1c(N)sc2c1CCN(CCc1ccccc1)C2`: the IC50 was > 29.9 µM (inactive) in [14] and 9.09 µM (active) in test [16]. In addition, the figures for the EC50 in test [15] and in [17] were 1.58 µM (active) and > 29.9 µM (inactive), respectively.

With `CC(=O)NCCc1ccc(C(=O)COC(=O)c2cccs2)cc1`, the EC50 in test [12] and in [13] was > 91.1 µM (inactive) in each case.

`Cc1cc2c(ccc3c2no[n+]3[O-])nn1`: the IC50 in [6] is > 29.9 µM (inactive). In test [7], the EC50 was > 29.9 µM (inactive).

For the molecule `Cc1ccccc1-c1nc(CS(=O)(=O)CC(=O)NCCc2ccccc2)c(C)o1`, the IC50 in [14] was > 29.9 µM (inactive); in [16], 8.58 µM (active). Besides, the EC50 in [15] is 3.59 µM (active); in test [17], > 29.9 µM (inactive).

On to `O=C(N[C@@H](Cc1cccnc1)C(=O)N1CCC[C@H]1C(=O)NCCc1ccccc1Cl)C1CCCC1`, for which the IC50 in test [14] is > 29.9 µM (inactive); in test [16] it was 3.72 µM (active). For the same molecule, the values for the EC50 in test [15] and in test [17] were 2.91 µM (active) and > 29.9 µM (inactive), respectively.

For the molecule `Oc1cnnc(Nc2ccccc2)n1`, the IC50 in test [14] and in test [16] was > 29.9 µM (inactive) throughout. The EC50 in test [15] was 4.6 µM (active); in test [17] it was > 29.9 µM (inactive).

Take `C[C@@H]1CCCCO[C@@H](CN(C)C(=O)NC2CCCCC2)[C@H](C)CN([C@H](C)CO)C(=O)c2cc(NS(=O)(=O)c3ccc(Cl)cc3)ccc2O1`: the AC50 in [1] was 7.57 µM (active); in test [2], 15.7 µM (active); in test [3], 38.3 µM (active); in test [5], > 70 µM (inactive).

Regarding `CN(C)S(=O)(=O)N1CCN(CC(O)COc2ccc3cc(Br)ccc3c2)CC1` (configuration not stated), the IC50 in [10] was > 80 µM (inactive).

For `CCCCCCn1c(NCC)nc2c1c(=O)n(C)c(=O)n2C`, the concentration at half-maximal activity (AC50) in test [18] is 0.834 µM (active); in test [19], 2.55 µM (active); in [20], 9.18 µM (active). Besides, the figures for the IC50 in test [6] and in [8] were > 1.11 µM (active) and 9.46 µM (active), respectively. Besides, the EC50 in test [7] was > 29.9 µM (inactive).

As to `Cc1ccc(/C=C/C(=O)NC2CCCCCCC2)o1`, in test [21], the IC50 is > 80 µM (inactive). In addition, the EC50 in [12] and in test [13] was > 91.1 µM (inactive) in each case.
